Measured values reported in patent US20090143469A1, “SALTS OF NATEGLINIDE” (priority 2002, published 2009).
Read-outs that look alike come from different tables or passages of the source.

Columns and labels:
Assay type in all cases: physicochemical
[1] = Bulk density of nateglinide salts
[2] = Solubility in water of nateglinide salts
[3] = Gain in weight at 84% RH (hygroscopicity) of nateglinide salts; details: for Gain % (gain in weight at 84% RH): 84% RH (relative humidity), * = XRPD changed, confirmed by Thermalgravimetry; for hygroscopicity (in words): different relative humidities

[Ca] [Calcium]
Bulk Density [1]: 0.24 g/mL | Solubility Water [2]: 540 µg/mL

CC(C)[C@H]1CC[C@H](C(=O)N[C@H](Cc2ccccc2)C(=O)[O-])CC1.CC(C)[C@H]1CC[C@H](C(=O)N[C@H](Cc2ccccc2)C(=O)[O-])CC1.[Mg+2] [Comp. No. 11]
Bulk Density [1]: 0.21 g/mL | Solubility Water [2]: 450 µg/mL | water solubility compared with other forms (in words) [2]: comparable to that of the calcium analogue | Gain % (gain in weight at 84% RH) [3]: <0.1% | hygroscopicity (in words) [3]: non-hygroscopic

CC(C)[C@H]1CC[C@H](C(=O)N[C@H](Cc2ccccc2)C(=O)O)CC1.CNC[C@H](O)[C@@H](O)[C@H](O)[C@H](O)CO [Comp. No. 12]
Bulk Density [1]: 0.16 g/mL | Solubility Water [2]: 7300 µg/mL | water solubility compared with other forms (in words) [2]: lower than that of the alkaline metal salts of nateglinide | Gain % (gain in weight at 84% RH) [3]: <0.1% | hygroscopicity (in words) [3]: non-hygroscopic

CC(C)[C@H]1CC[C@H](C(=O)N[C@H](Cc2ccccc2)C(=O)O)CC1.NC(CO)(CO)CO [Comp. No. 13]
Bulk Density [1]: 0.51 g/mL | Solubility Water ([2]; listed as TRIS): >40000 µg/mL | Solubility Water ([2]; listed as tris(hydroxymethyl)-aminomethane salt of nateglinide): more than 40 mg/ml | Gain % (gain in weight at 84% RH) [3]: <0.1%

CC(C)[C@H]1CC[C@H](C(=O)N[C@H](Cc2ccccc2)C(=O)O)CC1.NCCCCC(N)C(=O)O [Comp. No. 14]
Gain % (gain in weight at 84% RH) [3]: 1.3%

CC(C)C1CCC(C(=O)NC(Cc2ccccc2)C(=O)O)CC1.N (stereo not drawn) [Comp. No. 17]
Gain % (gain in weight at 84% RH) [3]: <0.1%

CC(C)[C@H]1CC[C@H](C(=O)N[C@H](Cc2ccccc2)C(=O)[O-])CC1.[Na+] [Compound No. 1]
Gain % (gain in weight at 84% RH) [3]: 1.19%

CC(C)C1CCC(C(=O)NC(Cc2ccccc2)C(=O)[O-])CC1.[K+] (stereo not drawn) [Compound No. 5]
Gain % (gain in weight at 84% RH) [3]: 8.2* %

CC(C)C1CCC(C(=O)NC(Cc2ccccc2)C(=O)[O-])CC1.CC(C)C1CCC(C(=O)NC(Cc2ccccc2)C(=O)[O-])CC1.[Ca+2] (stereo not drawn) [Compound No. 9]
Gain % (gain in weight at 84% RH) [3]: 0.4%

CC(C)[C@H]1CC[C@H](C(=O)N[C@H](Cc2ccccc2)C(=O)O)CC1 [Form B of nateglinide, N-(trans-4-isopropylcyclohexylcarbonyl)-D-phenylalanine, reference compound]
Bulk Density [1]: 0.18 g/mL | solubility [2]: 90 µg/mL

CC(C)[C@H]1CC[C@H](C(=O)N[C@H](Cc2ccccc2)C(=O)O)CC1 [Form H of nateglinide, N-(trans-4-isopropylcyclohexylcarbonyl)-D-phenylalanine, reference compound]
Bulk Density [1]: 0.28 g/mL | Solubility Water [2]: 90 µg/mL | Gain % (gain in weight at 84% RH) [3]: <0.1%

[K+] [Potassium]
Bulk Density [1]: 0.17 g/mL | Solubility Water [2]: >40000 µg/mL

CC(C)[C@H]1CC[C@H](C(=O)N[C@H](Cc2ccccc2)C(=O)[O-])CC1.[Na+] [Sodium]
Bulk Density [1]: 0.14 g/mL | Solubility Water [2]: >40000 µg/mL

Ammonium
Bulk Density [1]: 0.20 g/mL | Solubility Water [2]: <200 µg/mL

Lysine
Bulk Density [1]: 0.50 g/mL
